Experimental data from PubChem BioAssay AID328 (DTP/NCI, 2004).
“And” between values parts separate entries of the source, which are not always exact repeats. Equal values may be shown once. Inconclusive results and toxic doses are left out.

System: BDF1 mice, P388 leukemia ip, median survival T/C
Assay: NCI In Vivo Anticancer Drug Screen. Data for tumor model P388 Leukemia (intraperitoneal) in B6D2F1 (BDF1) mice
Details: endpoint: median survival time, higher = longer survival
Outline: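 In tumour-bearing mice, survival after compound treatment is set against the vehicle group and given as a quotient.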

[1] = dose: 50.0 mg/kg/injection, schedule: Q01DX009 (ip), vehicle: saline with Tween-80
[2] = dose: 100.0 mg/kg/injection, schedule: Q04DX003 (ip), vehicle: saline with Tween-80
[3] = dose: 200.0 mg/kg/injection, schedule: Q04DX003 (ip), vehicle: saline with Tween-80
[4] = dose: 100.0 mg/kg/injection, schedule: Q01DX009 (ip), vehicle: saline with Tween-80
[5] = dose: 400.0 mg/kg/injection, schedule: Q04DX003 (ip), vehicle: saline with Tween-80
[6] = dose: 50.0 mg/kg/injection, schedule: Q01DX009 (ip), vehicle: Klucel (hydroxypropylcellulose) (HPC)

SMILES: OC1(C2(O)c3ccccc3Oc3ccccc32)c2ccccc2Oc2ccccc21
- T/C (dose: 50.0 mg/kg/injection, schedule: Q01DX001 (ip), vehicle: saline): 95 % of control
- T/C (dose: 100.0 mg/kg/injection, schedule: Q01DX001 (ip), vehicle: saline): 90 % of control
- T/C (dose: 200.0 mg/kg/injection, schedule: Q01DX001 (ip), vehicle: saline): 90 % of control

SMILES: CCCCCCCCCCCCNC(=O)CCC(=O)O
- T/C (dose: 37.5 mg/kg/injection, schedule: Q01DX009 (ip), vehicle: saline with Tween-80): 91 % of control
- T/C (dose: 75.0 mg/kg/injection, schedule: Q01DX009 (ip), vehicle: saline with Tween-80): 87 % of control

SMILES: Cc1ccc(N=NN(C)C)cc1
- T/C (dose: 33.0 mg/kg/injection, schedule: Q01DX009 (ip), vehicle: saline with Tween-80): 104 % of control
- T/C [1]: 108 % of control

SMILES: CCCCc1c2c(nn1C(C)=O)C(=O)C=C(Nc1ccccc1)C2=O
- T/C [2]: 100 % of control
- T/C [3]: 99 % of control

SMILES: COc1ncnc2nc[nH]c12
- T/C [4]: 95 % of control
- T/C [2]: 100 % of control
- T/C (dose: 200.0 mg/kg/injection, schedule: Q01DX009 (ip), vehicle: saline with Tween-80): 91 % of control
- T/C [3]: 109 % of control
- T/C (dose: 400.0 mg/kg/injection, schedule: Q01DX009 (ip), vehicle: saline with Tween-80): 86 % of control
- T/C [5]: 95 % of control

SMILES: CCOC(=O)c1ccnc2ccc(O)cc12
- T/C [2]: 91 % of control
- T/C [3]: 108 % of control
- T/C [5]: 95 % of control

SMILES: O.O.O=c1[nH]cc(CO)c(=O)[nH]1.[NH2-].[NH2-].[Pt+2]
- T/C (dose: 3.12 mg/kg/injection, schedule: Q01DX009 (ip), vehicle: Klucel (hydroxypropylcellulose) (HPC)): 99 % of control
- T/C (dose: 6.25 mg/kg/injection, schedule: Q01DX009 (ip), vehicle: Klucel (hydroxypropylcellulose) (HPC)): 88 % of control
- T/C (dose: 12.5 mg/kg/injection, schedule: Q01DX009 (ip), vehicle: Klucel (hydroxypropylcellulose) (HPC)): 209 % of control
- T/C (dose: 25.0 mg/kg/injection, schedule: Q01DX009 (ip), vehicle: Klucel (hydroxypropylcellulose) (HPC)): 248 % of control and 211 % of control
- T/C [6]: 90 % of control

SMILES: Cc1c2c(O)c(O)c(O)cc2c[n+]2ccccc12
- T/C (dose: 6.25 mg/kg/injection, schedule: Q01DX009 (ip), vehicle: saline): 100 % of control
- T/C (dose: 12.5 mg/kg/injection, schedule: Q01DX009 (ip), vehicle: saline): 106 % of control
- T/C (dose: 25.0 mg/kg/injection, schedule: Q01DX009 (ip), vehicle: saline): 123 % of control

SMILES: CCCCCCCCC1SC1CCCCCCCC(=O)OCCN(C)C(=O)CCCCCCCC1SC1CCCCCCCC (configuration not stated)
- T/C (dose: 100.0 mg/kg/injection, schedule: Q04DX003 (ip), vehicle: other): 100 % of control
- T/C (dose: 200.0 mg/kg/injection, schedule: Q04DX003 (ip), vehicle: other): 100 % of control
- T/C (dose: 400.0 mg/kg/injection, schedule: Q04DX003 (ip), vehicle: other): 100 % of control

SMILES: CC1=NC2=NC(CCCC(=O)OCc3ccccc3)=NC3=CC=CC(=N1)N32
- T/C (dose: 25.0 mg/kg/injection, schedule: Q01DX009 (ip), vehicle: saline with Tween-80): 108 % of control
- T/C [1]: 110 % of control
- T/C [4]: 101 % of control

SMILES: O=C1c2cc(Cl)ccc2-c2c(NC(=O)C(Cl)Cl)cc(Cl)cc21
- T/C [2]: 104 % of control
- T/C [3]: 113 % of control
- T/C [5]: 104 % of control

SMILES: C=C[P+](c1ccccc1)(c1ccccc1)c1ccccc1
- T/C (dose: 1.0 mg/kg/injection, schedule: Q01DX009 (ip), vehicle: saline): 110 % of control
- T/C (dose: 1.5 mg/kg/injection, schedule: Q01DX010 (ip), vehicle: saline): 95 % of control
- T/C (dose: 2.5 mg/kg/injection, schedule: Q01DX009 (ip), vehicle: saline): 150 % of control
- T/C (dose: 3.0 mg/kg/injection, schedule: Q01DX010 (ip), vehicle: saline): 116 % of control
- T/C (dose: 3.3 mg/kg/injection, schedule: Q04DX003 (ip), vehicle: saline): 120 % of control
- T/C (dose: 3.7 mg/kg/injection, schedule: Q01DX009 (ip), vehicle: saline): 89 % of control
- T/C (dose: 5.0 mg/kg/injection, schedule: Q01DX009 (ip), vehicle: saline): 95 % of control

SMILES: CN(Cc1ccc2nc(N)nc(N)c2c1)c1ccc(C(=O)NC(CCC(=O)O)C(=O)O)cc1 (configuration not stated)
- T/C (dose: 0.03 mg/kg/injection, schedule: Q01DX009 (ip), vehicle: saline): 172 % of control
- T/C (dose: 0.05 mg/kg/injection, schedule: Q01DX009 (ip), vehicle: saline): 194 % of control
- T/C (dose: 0.09 mg/kg/injection, schedule: Q01DX009 (ip), vehicle: saline): 200 % of control and 218 % of control
- T/C (dose: 0.15 mg/kg/injection, schedule: Q01DX009 (ip), vehicle: saline): 86 % of control and 190 % of control and 209 % of control
- T/C (dose: 0.22 mg/kg/injection, schedule: Q01DX009 (ip), vehicle: saline): 223 % of control
- T/C (dose: 0.31 mg/kg/injection, schedule: Q01DX009 (ip), vehicle: saline): 110 % of control
- T/C (dose: 1.25 mg/kg/injection, schedule: Q04DX003 (ip), vehicle: saline): 218 % of control
- T/C (dose: 1.65 mg/kg/injection, schedule: Q04DX003 (ip), vehicle: saline): 154 % of control
- T/C (dose: 2.5 mg/kg/injection, schedule: Q04DX003 (ip), vehicle: saline): 268 % of control and 159 % of control and 181 % of control
- T/C (dose: 3.75 mg/kg/injection, schedule: Q04DX003 (ip), vehicle: saline): 86 % of control and 222 % of control
- T/C (dose: 5.0 mg/kg/injection, schedule: Q04DX003 (ip), vehicle: saline): 104 % of control
- T/C (dose: 5.7 micrograms/kg/injection, schedule: Q01DX009 (ip), vehicle: saline): 116 % of control
- T/C (dose: 8.5 micrograms/kg/injection, schedule: Q01DX009 (ip), vehicle: saline): 116 % of control
- T/C (dose: 13.0 micrograms/kg/injection, schedule: Q01DX009 (ip), vehicle: saline): 262 % of control
- T/C (dose: 19.0 micrograms/kg/injection, schedule: Q01DX009 (ip), vehicle: saline): 174 % of control

SMILES: CCC1(O)CC2CN(CCc3c([nH]c4ccccc34)C(C(=O)OC)(c3cc4c(cc3OC)N(C)C3C(O)(C(=O)NCCO)C(O)C5(CC)C=CCN6CCC43C65)C2)C1 (configuration not stated)
- T/C (dose: 500.0 micrograms/kg/injection, schedule: Q04DX003 (ip), vehicle: saline): 173 % of control
- T/C (dose: 1000.0 micrograms/kg/injection, schedule: Q04DX003 (ip), vehicle: saline): 182 % of control
- T/C (dose: 2000.0 micrograms/kg/injection, schedule: Q04DX003 (ip), vehicle: saline): 219 % of control
- T/C (dose: 4000.0 micrograms/kg/injection, schedule: Q04DX003 (ip), vehicle: saline): 286 % of control

SMILES: Oc1ccccc1O.[O-]c1ccccc1[O-].[O-]c1ccccc1[O-].[O]=[V+2]
- T/C (dose: 9.37 mg/kg/injection, schedule: Q01DX009 (ip), vehicle: saline): 89 % of control
- T/C (dose: 9.37 mg/kg/injection, schedule: Q04DX003 (ip), vehicle: saline): 100 % of control
- T/C (dose: 18.75 mg/kg/injection, schedule: Q01DX009 (ip), vehicle: saline): 94 % of control
- T/C (dose: 18.75 mg/kg/injection, schedule: Q04DX003 (ip), vehicle: saline): 109 % of control
- T/C (dose: 24.0 mg/kg/injection, schedule: Q04DX003 (ip), vehicle: saline): 104 % of control
- T/C (dose: 24.7 mg/kg/injection, schedule: Q04DX003 (ip), vehicle: saline): 100 % of control
- T/C (dose: 37.0 mg/kg/injection, schedule: Q04DX003 (ip), vehicle: saline): 105 % of control
- T/C (dose: 37.5 mg/kg/injection, schedule: Q01DX009 (ip), vehicle: saline): 89 % of control
- T/C (dose: 37.5 mg/kg/injection, schedule: Q04DX003 (ip), vehicle: saline): 100 % of control
- T/C (dose: 55.0 mg/kg/injection, schedule: Q04DX003 (ip), vehicle: saline): 100 % of control
- T/C (dose: 55.5 mg/kg/injection, schedule: Q04DX003 (ip), vehicle: saline): 90 % of control

SMILES: C1=CC=CN(c2ccccc2)C=C1
- T/C [6]: 90 % of control
- T/C (dose: 100.0 mg/kg/injection, schedule: Q01DX009 (ip), vehicle: Klucel (hydroxypropylcellulose) (HPC)): 105 % of control
- T/C (dose: 100.0 mg/kg/injection, schedule: Q04DX003 (ip), vehicle: Klucel (hydroxypropylcellulose) (HPC)): 95 % of control
- T/C (dose: 200.0 mg/kg/injection, schedule: Q01DX009 (ip), vehicle: Klucel (hydroxypropylcellulose) (HPC)): 105 % of control
- T/C (dose: 200.0 mg/kg/injection, schedule: Q04DX003 (ip), vehicle: Klucel (hydroxypropylcellulose) (HPC)): 91 % of control
- T/C (dose: 400.0 mg/kg/injection, schedule: Q04DX003 (ip), vehicle: Klucel (hydroxypropylcellulose) (HPC)): 100 % of control

SMILES: O=P(N1CCCCC1)(N1CC1)N1CC1
- T/C (dose: 2.2 mg/kg/injection, schedule: Q01DX009 (ip), vehicle: saline): 103 % of control
- T/C (dose: 3.3 mg/kg/injection, schedule: Q01DX009 (ip), vehicle: saline): 118 % of control
- T/C (dose: 7.5 mg/kg/injection, schedule: Q01DX009 (ip), vehicle: saline): 185 % of control
- T/C (dose: 25.0 mg/kg/injection, schedule: Q04DX003 (ip), vehicle: saline): 225 % of control
